ChEMBL document CHEMBL1201862, “PubChem BioAssay data set” (2004)
Active and inactive are the calls of the source.

What was measured:
Cytochrome P450 2C9 = Cytochrome P450 2C9 (Homo sapiens, UniProt P11712)
[1] = target: T1, Corticotropin-releasing factor receptor 2/Corticotropin-releasing factor-binding protein (Homo sapiens, UniProt P24387+Q13324); assay: Dose Response confirmation of uHTS hits for small molecule antagonists of the CRF-binding protein and CRF-R2 receptor complex.; assay type: functional; conditions: read-out: IC50_Mean
T1 sequence (Q13324 whole entry): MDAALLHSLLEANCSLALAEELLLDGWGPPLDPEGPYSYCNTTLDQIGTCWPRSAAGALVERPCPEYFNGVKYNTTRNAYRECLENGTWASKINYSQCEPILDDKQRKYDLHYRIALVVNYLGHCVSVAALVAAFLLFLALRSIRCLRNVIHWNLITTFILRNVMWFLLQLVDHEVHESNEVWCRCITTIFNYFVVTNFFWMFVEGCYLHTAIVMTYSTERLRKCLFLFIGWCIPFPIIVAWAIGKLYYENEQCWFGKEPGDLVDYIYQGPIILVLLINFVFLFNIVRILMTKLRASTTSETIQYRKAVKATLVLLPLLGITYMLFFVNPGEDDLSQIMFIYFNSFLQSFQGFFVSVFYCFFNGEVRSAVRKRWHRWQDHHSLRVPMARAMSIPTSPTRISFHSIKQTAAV
T1 sequence (P24387 whole entry): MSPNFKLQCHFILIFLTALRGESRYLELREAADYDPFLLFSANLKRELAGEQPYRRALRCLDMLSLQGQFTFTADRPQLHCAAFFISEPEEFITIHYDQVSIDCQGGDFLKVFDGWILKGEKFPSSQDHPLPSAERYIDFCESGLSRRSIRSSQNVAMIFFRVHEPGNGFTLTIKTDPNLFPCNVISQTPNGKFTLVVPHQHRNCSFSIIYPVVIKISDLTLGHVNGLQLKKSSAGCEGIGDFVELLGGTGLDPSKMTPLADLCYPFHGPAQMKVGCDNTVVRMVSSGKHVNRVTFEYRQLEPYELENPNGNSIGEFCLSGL

[2] = target: T1, Corticotropin-releasing factor receptor 2/Corticotropin-releasing factor-binding protein; assay: activators of CRF receptor 2 with binding protein – uHTS hits, confirmation (AID 602473); assay type: functional; conditions: read-out: EC50_Mean
H4 = assay: Luminescence Cell-Based Dose Response HTS to Identify Activators of 5'UTR Stem-Loop Driven Prion Protein mRNA Translation in H4 Neuroglioblastoma Cells. [Related pubchem assays: 1829 (Project Summary), 1814 (Primary HTS)]; assay type: functional; conditions: Homo sapiens
[3] = Luminescence Cell-Based Dose Response HTS to Identify Activators of Luciferase Translation or Activity in H4 […] Cells. [Related pubchem assays: 1829 (Project Summary), 1814 (Primary HTS)]; assay type: functional
[4] = HEp-2 cell cytotoxicity, dose response, cytotoxicity control for RSV inhibitor project, HTS (AID 2410); assay type: functional; conditions: human respiratory syncytial virus
[5] = P. falciparum Dd2 growth inhibitors, dose response, SYBR Green, cherry-picked samples (AID 1159567); assay type: functional, cell-based
[6] = target: T2, Rac GTPase-activating protein 1 (Homo sapiens, UniProt Q9H0H5); assay: MgcRacGAP GTPase-activating activity inhibitors, confirmation, biochemical, ADP Hunter fluorescence, primary and confirmatory (AID 624330); assay type: functional
T2 sequence (Q9H0H5 whole entry): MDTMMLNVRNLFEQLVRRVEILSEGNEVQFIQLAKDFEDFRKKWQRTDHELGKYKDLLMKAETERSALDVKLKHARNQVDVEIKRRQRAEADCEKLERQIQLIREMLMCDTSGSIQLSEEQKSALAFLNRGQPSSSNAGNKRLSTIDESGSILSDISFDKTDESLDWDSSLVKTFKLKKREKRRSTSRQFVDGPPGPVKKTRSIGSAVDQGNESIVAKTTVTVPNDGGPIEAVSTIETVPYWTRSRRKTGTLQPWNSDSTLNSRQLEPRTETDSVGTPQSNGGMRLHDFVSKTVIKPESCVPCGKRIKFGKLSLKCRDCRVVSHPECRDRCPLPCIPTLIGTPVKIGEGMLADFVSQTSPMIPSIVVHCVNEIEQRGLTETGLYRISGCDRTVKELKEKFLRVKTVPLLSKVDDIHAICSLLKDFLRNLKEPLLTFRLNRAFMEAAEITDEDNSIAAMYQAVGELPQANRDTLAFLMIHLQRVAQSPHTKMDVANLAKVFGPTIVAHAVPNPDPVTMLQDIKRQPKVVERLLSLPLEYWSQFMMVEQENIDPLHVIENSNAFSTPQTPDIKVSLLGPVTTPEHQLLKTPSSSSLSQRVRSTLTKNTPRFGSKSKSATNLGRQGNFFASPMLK

[7] = Shn3 3'UTR reporter inhibitors, dose response, cell-based, Clone20 osteoblasts, firefly luciferase, cherry-picked (AID 624132); assay type: functional;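 further: firefly luciferase luminescence from reporter carrying the Shn3 3'UTR in osteoblasts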
[8] = cytotoxicity toward NIH3T3 fibroblasts, dose response, counter-screen, cell-based, ATP luminescence, mouse fibroblasts (AID 2010); assay type: functional;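 further: cells exposed to compound for about 90 hours before reading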
[9] = inhibitors of intracellular T. cruzi replication, confirmation, NIH3T3 host cells, beta-gal luminescence (AID 2044); assay type: functional, cell-based;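 further: intracellular parasites grown in NIH/3T3 mouse fibroblasts as host cells; luminescent beta-galactosidase reporter signal from transgenic T. cruzi replicating inside host cells; inhibitors lower the luminescence signal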
Protein skinhead-1 = target: T3, Protein skinhead-1 (Caenorhabditis elegans, UniProt P34707); assay type: functional
T3 sequence (P34707 whole entry): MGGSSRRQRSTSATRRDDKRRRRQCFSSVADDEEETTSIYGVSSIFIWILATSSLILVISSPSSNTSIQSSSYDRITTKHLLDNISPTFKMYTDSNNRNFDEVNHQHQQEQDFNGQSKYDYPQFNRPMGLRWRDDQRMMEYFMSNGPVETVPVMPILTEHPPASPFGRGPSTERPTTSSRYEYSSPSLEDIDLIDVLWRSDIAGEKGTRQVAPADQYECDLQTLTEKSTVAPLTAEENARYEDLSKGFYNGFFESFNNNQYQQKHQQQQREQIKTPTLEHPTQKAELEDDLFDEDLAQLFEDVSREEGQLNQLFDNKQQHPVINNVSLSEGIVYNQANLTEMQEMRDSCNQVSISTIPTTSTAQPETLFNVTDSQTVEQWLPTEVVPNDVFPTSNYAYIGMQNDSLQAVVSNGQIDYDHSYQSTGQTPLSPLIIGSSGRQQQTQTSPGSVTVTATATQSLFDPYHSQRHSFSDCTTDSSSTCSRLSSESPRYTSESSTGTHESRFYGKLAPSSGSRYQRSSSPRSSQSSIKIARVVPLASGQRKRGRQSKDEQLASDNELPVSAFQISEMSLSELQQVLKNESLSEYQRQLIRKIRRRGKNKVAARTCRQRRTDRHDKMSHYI

Cytochrome P450 2C9, sequence (P11712 whole entry): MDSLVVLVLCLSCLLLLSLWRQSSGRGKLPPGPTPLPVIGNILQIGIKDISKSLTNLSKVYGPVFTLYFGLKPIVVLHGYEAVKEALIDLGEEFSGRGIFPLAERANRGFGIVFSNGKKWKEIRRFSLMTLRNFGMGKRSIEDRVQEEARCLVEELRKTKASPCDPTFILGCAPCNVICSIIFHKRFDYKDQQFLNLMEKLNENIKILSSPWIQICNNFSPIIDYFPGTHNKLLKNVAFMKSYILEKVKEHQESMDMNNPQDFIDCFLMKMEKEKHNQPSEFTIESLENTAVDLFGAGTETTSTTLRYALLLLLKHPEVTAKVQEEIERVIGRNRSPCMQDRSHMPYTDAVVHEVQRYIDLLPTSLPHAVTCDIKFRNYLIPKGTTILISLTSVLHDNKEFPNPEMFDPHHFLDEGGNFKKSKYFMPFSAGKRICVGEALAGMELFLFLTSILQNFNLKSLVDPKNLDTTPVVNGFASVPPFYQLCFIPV

## COc1ccc(Oc2ncc3nc(-c4cccc(C#N)c4)c(=O)n(Cc4cccc(OC)c4)c3n2)cc1
Cytochrome P450 2C9
  AC50: 2.51 µM (inconclusive)

## CC(=O)Nc1ccc(OCC[n+]2cccc(C(N)=O)c2)cc1
[1]
  IC50: > 47.1 µM (inactive)
[2]
  EC50: > 53 µM (inactive)

## CCCN1Cc2cccc(C(=O)NCc3cccs3)c2C1=O
[1]
  IC50: > 47.1 µM (inactive)
[2]
  EC50: > 53 µM (inactive)

## c1ccc(CNC2=NN=C(c3ccccc3)CS2)cc1
H4
  EC50: 24.2 µM (active)
[3]
  EC50: 0.293 µM (active)

## O=C(Nc1nc(-c2ccc(Cl)cc2)cs1)NC1CCCCC1
[4]
  CC50: 20.3 µM (active)

## CC(C)(C)[S@@+]([O-])N1Cc2cc(C(=O)N[C@@H]3CCN(Cc4ccccc4)C3)nc(-c3cccc(-c4ccncc4)c3)c2[C@H]1CCO
[5]
  AC50: 6.63 µM (active)

## Cc1nn2c(N)c(-c3ccccc3)cnc2c1-c1ccc(Cl)cc1
[1]
  IC50: > 47.1 µM (inactive)
[2]
  EC50: > 53 µM (inactive)

## O=C(O)Cn1cc(/C=C2\C(=O)NC(=O)N(c3ccc(Cl)cc3)C2=O)c2ccccc21
[6]
  IC50: 255 µM (active)

## COc1ccc(N2C(=O)CC(Sc3nc(C)cc(C)c3C#N)C2=O)cc1 (stereo unspecified)
H4
  EC50: 25.4 µM (active)
[3]
  EC50: 14.6 µM (active)

## c1cc(CN2CCN(C3CCCCCC3)CC2)ccn1
[6]
  IC50: 92 µM (active)

## C=CCOc1nc2c(c(=O)n(Cc3ccc(Cl)c(Cl)c3)c(=O)n2C)n1C
[1]
  IC50: > 47.1 µM (inactive)
[2]
  EC50: > 53 µM (inactive)

## c1cncc(-c2nn3c(Cn4nnc5ccccc54)nnc3s2)c1
[4]
  CC50: > 50 µM (active)

## CCOc1nc(C)ccc1-c1noc(-c2ccccn2)n1
[1]
  IC50: > 47.1 µM (inactive)
[2]
  EC50: > 53 µM (inactive)

## O=C(C(c1ccccc1)c1ccccc1)N1CCN(CCN2C(=O)c3cccc4cccc(c34)C2=O)CC1
[1]
  IC50: > 47.1 µM (inactive)
[2]
  EC50: > 53 µM (inactive)

## COC(=O)c1sccc1-c1ccc(C(N)=O)o1
[4]
  CC50: 44 µM (active)

## CCc1cc(-c2[nH]nc(CCC(=O)O)c2-c2nc3ccccc3n2C)c(O)cc1O
[6]
  IC50: 122 µM (active)

## COc1ccc(-c2nc3cnc(OC)nc3n(Cc3cccc(OC)c3)c2=O)cc1
Cytochrome P450 2C9
  AC50: 3.16 µM (inconclusive)

## O=C(c1ccc(NS(=O)(=O)c2cccc([N+](=O)[O-])c2)cc1)N1CCCCCC1
[1]
  IC50: > 47.1 µM (inactive)
[2]
  EC50: > 53 µM (inactive)

## COc1ccc(CN(C(=O)CSc2nnc(-c3ccc(F)cc3)o2)c2ccc(F)cc2)cc1
[7]
  AC50: 43.4 µM (active)

## Cc1cc(C)c(S(=O)(=O)n2ccc3ccccc32)c(C)c1
[1]
  IC50: > 47.1 µM (inactive)
[2]
  EC50: > 53 µM (inactive)

## Cc1ccnc(NC(=O)c2ccc(NC(=O)c3ccco3)cc2)c1
H4
  EC50: 11.9 µM (active)
[3]
  EC50: 1.37 µM (active)

## Cc1ccc(C2(C)NC(=O)N(CC(=O)Nc3ccc(-c4nc5ccc(C)cc5s4)cc3)C2=O)cc1 (stereo unspecified)
[4]
  CC50: 41.5 µM (active)

## CCn1c(=O)n(CC)c2cc(N3CCCC3)c(NC(=O)c3ccccc3)cc21
[6]
  IC50: 91 µM (active)

## COC(C(=O)Nc1ccc(F)cc1)c1ccccc1 (stereo unspecified)
[1]
  IC50: > 47.1 µM (inactive)
[2]
  EC50: > 53 µM (inactive)

## COc1cccc(CN2CCN(Cc3cc(OC)c(OC)c(OC)c3)CC2)c1OC
[6]
  IC50: 74.8 µM (active)

## O=C(Nc1ccccc1)c1sccc1Oc1ccc([N+](=O)[O-])cc1F
[8]
  EC50: > 60 µM (not active)
[9]
  EC50: 1.42 µM (active)
[1]
  IC50: > 47.1 µM (inactive)
[2]
  EC50: > 53 µM (inactive)

## CCN1CCN(CCOc2cccc(Cl)c2Cl)CC1
[8]
  EC50: > 60 µM (not active)
[9]
  EC50: 0.151 µM (active)
[6]
  IC50: 70.4 µM (active)

## COCC(=O)Nc1ccc2c(c1)C(=O)N(C)C[C@H](OC)[C@H](C)CN(Cc1cccc(F)c1)[C@@H](C)CO2
[5]
  AC50: 5.34 µM (active)

## Cc1cc(OCCCN2CCN(Cc3ccccc3)CC2)ccc1[N+](=O)[O-]
[8]
  EC50: > 60 µM (inconclusive)
[9]
  EC50: 0.156 µM (active)
[6]
  IC50: 62 µM (active)

## O=C(C1CCCC1)N1CC(=O)N2[C@H](C1)[C@@H](c1ccc(C#CCc3ccccc3)cc1)[C@@H]2CO
[5]
  AC50: 4.51 µM (active)

## Cc1nc2ccccn2c1C(=O)C1=C(O)C(=O)N(CCN2CCOCC2)C1c1cccnc1 (stereo unspecified)
Cytochrome P450 2C9
  AC50: 17.8 µM (inconclusive)

## C=CC[C@@H]1C=C[C@H](O/N=C(\C)CCN2CCc3nc(-c4ccccc4)c(-c4ccccc4)cc3C2)[C@H](CO)O1
Cytochrome P450 2C9
  AC50: 0.0794 µM (inconclusive)

## N#C/C(=C(/O)COC(=O)COc1cccc(Br)c1)c1nc2ccccc2[nH]1
[1]
  IC50: > 47.1 µM (inactive)
[2]
  EC50: > 53 µM (inactive)

## O=S(=O)(c1ccccc1)N1CCC[C@@]2(CCN(c3ccccc3)C2)C1
Cytochrome P450 2C9
  AC50: 2.51 µM (inconclusive)

## CCC(C)C1N=C(c2ccccc2)c2cc(Cl)ccc2N(CC(=O)NCc2ccco2)C1=O (stereo unspecified)
[1]
  IC50: > 47.1 µM (inactive)
[2]
  EC50: > 53 µM (inactive)

## Clc1ccc2nc(N3CCCCC3)sc2c1
Protein skinhead-1
  IC50: 29.2 µM (active)

## CCC/C(=N\NC(=O)C1CC1)c1ccccc1
[1]
  IC50: > 47.1 µM (inactive)
[2]
  EC50: > 53 µM (inactive)

## CCCCNC(=O)CSc1nc2ccccc2c(=O)n1CCNC(C)=O
Cytochrome P450 2C9
  AC50: 22.4 µM (inconclusive)

## COc1ccc(S(=O)(=O)N2CCC(N3CCN(c4ccccc4OC)CC3)CC2)cc1
[6]
  IC50: 121 µM (active)
